Measured values as given in patent US7910582B2, “Cyclopropyl amines as modulators of the histamine H3 receptor” (Janssen Pharmaceutica NV, priority 2005, dated 2011).
Structures can show the parent of a compound that is named as a salt. Where two headings read alike, the source gives them in different places.

Assays:
Human H3 Receptor [1] = target: T1, Human H3 Receptor (Homo sapiens, UniProt Q9Y5N1); test: [3H]-N-Methylhistamine binding, membranes of H3 receptor-expressing SK-N-MC cells; details: 0.8 nM [3H]-N-methylhistamine, 60 min at 25° C., average of results
T1 construct: expressed in transfected cells
Experimental: (§1) Cells were grown to about 70% to 80% confluence and removed from the plate with trypsin and pelleted in a clinical centrifuge. The pellet was then re-suspended in 400 μL of complete media and transferred to an electroporation cuvette with a 0.4 cm gap between the electrodes (Bio-Rad #165-2088). One μg supercoiled H3 receptor cDNA was added to the cells and mixed gently. The voltage for the electroporation was set at 0.25 kV and the capacitance was set at 960 μF. After electroporation the cells were diluted with 10 mL of complete media and were plated onto four 10 cm dishes at the following ratios: 1:20, 1:10, 1:5, and 1:2. The cells were allowed to recover for 24 h before adding 600 μg G-418. Colonies that survived selection were grown and tested. SK-N-MC cells were used because they give efficient coupling for inhibition of adenylate cyclase. The clones that gave the most robust inhibition of adenylate cyclase in response to histamine were used for further study.
Cell pellets from histamine H3 receptor-expressing SK-N-MC cells were homogenized in 50 mM TrisHCl/0.5 mM EDTA. Supernatants from an 800 g spin were collected and were recentrifuged at 30,000 g for 30 min. Pellets were re-homogenized in 50 mM Tris/5 mM EDTA (pH 7.4). Membranes were incubated with 0.8 nM [^3H]-N-methylhistamine plus/minus test compounds for 60 min at 25° C. and were harvested by rapid filtration over GF/C glass fiber filters (pretreated with 0.3% polyethylenimine) followed by four washes with buffer. Filters were added to 5 mL of scintillation cocktail, and the signal was then counted on a liquid scintillation counter.

[2] = Pharmacokinetics and bioanalysis in the rat; assay type: in vivo, male Sprague Dawley Rats; details: for half-life (T1/2) relative to the comparative examples / volume of distribution (Vd) relative to the comparative examples: compared with isopropyl / cyclobutyl analogs
Experimental: One group of six male Sprague Dawley Rats (approx. 300 g body weight; three animals per time point) was used. They were group-housed, provided food and water ad libitum, and were maintained on a 12-h light and dark cycle. Animals were acclimatized for at least 7 days after receipt from the vendor prior to investigations.
For oral dosing, test compounds were formulated at 1 mg/mL in 0.5% hydroxypropyl methyl cellulose and delivered at a dose of 10 mg/kg. Citric acid salt forms (prepared as described for Example 1B) of the test compounds were used. Animals received a bolus dose of 10 mg/kg (10 mL/kg) for each compound via a 16 gauge intragastric gavage. For intravenous dosing, test compounds were formulated at 1 mg/mL in 5% dextrose in water and dosed at 1 mg/kg (1 mL/kg) with a bolus intravenous dose via a 24-gauge Terumo® Surflo® catheter in the lateral tail vein. All dosing solutions were prepared immediately prior to injection.
Blood samples (250 μL) were taken from the lateral tail vein into heparinized Natelson blood collection tubes and expelled into 1.5 mL mcirocentrifuge tubes. The blood samples were centrifuged for 5 min at 14,000 rpm in a micro-centrifuge. Plasma was retained and kept in a −20° C. freezer until analysis by LC-MS/MS.
Data analysis was performed using WinNonlin version 3.3 or 4.0.1. A non -compartmental model (#200 for Extravascular administration and #201 for i.v.) was used to determine the pharmacokinetic parameters shown in Tables 4 and 5 (NA=not applicable or not determined).

Human H3 Receptor [3] = target: T1, Human H3 Receptor; test: Cyclic AMP accumulation, SK-N-MC cells with reporter construct and human H3 receptor (pA2); assay type: cell-based; details: pA2, average of results
Experimental: as §1, with “The pellet was then re-suspended in 400 μL of complete media and transferred to an electroporation cuvette with a 0.4 cm gap between the electrodes (Bio-Rad #165-2088).” left out, “The cells were allowed to recover for 24 h before adding 600 μg G-418.” left out
Sublines of SK-N-MC cells were created that expressed a reporter construct and the human H3 receptor.

[4] = male, Sprague Dawley, iv, i.v. 1 mg/kg, citric acid salt, plasma
[5] = male, Sprague Dawley, iv, i.v. 1 mg/kg, citric acid salt, plasma, read-out: AUCINF (h-μmol/mL)
[6] = male, Sprague Dawley, oral 10 mg/kg, citric acid salt, plasma
[7] = male, Sprague Dawley, oral 10 mg/kg, citric acid salt, plasma, read-out: AUCINF (h-μmol/mL)
[8] = male, Sprague Dawley, plasma, iv, i.v. 1 mg/kg, citric acid salt, read-out: Vd
[9] = male, Sprague Dawley, iv, i.v. 1 mg/kg, citric acid salt, plasma, read-out: AUCINF
[10] = male, Sprague Dawley, oral 10 mg/kg, citric acid salt, plasma, read-out: AUCINF
[11] = oral 10 mg/kg, citric acid salt

T1 sequence (Q9Y5N1 whole entry): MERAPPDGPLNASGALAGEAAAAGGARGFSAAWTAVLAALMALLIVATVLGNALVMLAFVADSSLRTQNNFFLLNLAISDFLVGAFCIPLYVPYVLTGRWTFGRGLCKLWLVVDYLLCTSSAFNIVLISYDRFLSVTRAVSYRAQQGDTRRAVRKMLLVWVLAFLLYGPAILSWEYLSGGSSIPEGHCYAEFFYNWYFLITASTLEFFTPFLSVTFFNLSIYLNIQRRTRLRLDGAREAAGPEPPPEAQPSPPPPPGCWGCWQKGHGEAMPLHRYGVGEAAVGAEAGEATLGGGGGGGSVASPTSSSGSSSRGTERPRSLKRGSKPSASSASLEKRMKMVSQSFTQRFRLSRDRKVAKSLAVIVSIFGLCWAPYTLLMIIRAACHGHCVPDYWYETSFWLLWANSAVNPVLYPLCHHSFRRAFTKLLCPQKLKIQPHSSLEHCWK

Structure (SMILES) | Ki (Human H3 Receptor [1]; read-out: Ki) | CI ([2]; i.v. 1 mg/kg, citric acid salt) | Cmax [2, 4] | half-life [2, 4] | AUC(0-inf) [2, 5] | Cmax [2, 6] | Tmax [2, 6] | half-life [2, 6] | AUC(0-inf) [2, 7] | Vd [2, 8] | other results
O=C(c1ccc(CN2CCSCC2)cc1)N1CCN(C2CCC2)CC1 [Comparative Example 5, (4-Cyclobutyl-piperazin-1-yl)-(4-thiomorpholin-4-ylmethyl-phenyl)-methanone] | 1 nM |  |  |  |  |  |  |  |  |  | 
O=C(O)CC(O)(CC(=O)O)C(=O)O.O=C(c1ccc(CN2CCOC(CO)C2)cc1)N1CCN(C2CC2)CC1 (centres unmarked) [Example 4B, (4-Cyclopropyl-piperazin-1-yl)-[4-(2-hydroxymethyl-morpholin-4-ylmethyl)-phenyl]-methanone citrate salt] | 23 nM | 15.2 mL/min/kg | 2920 nM | 1.47 h | 3.07 µM·h | 8730 nM | 0.83 h | 3.58 h | 33.2 µM·h | 1.91 L/kg | half-life (T1/2) relative to the comparative examples [2]: shorter T1/2; volume of distribution (Vd) relative to the comparative examples [2]: lower Vd
CC(C)N1CCN(C(=O)c2ccc(CN3CCOCC3)cc2)CC1 [Comparative Example 1A, (4-Isopropyl-piperazin-1-yl)-(4-morpholin-4-ylmethyl-phenyl) -methanone dihydrochloride] |  |  |  |  |  |  |  |  |  |  | Kb (Human H3 Receptor [3]): 1.26 nM
CC(C)N1CCN(C(=O)c2ccc(CN3CCC(F)CC3)cc2)CC1 [Comparative Example 3, [4-(4-Fluoro-piperidin-1-ylmethyl)-phenyl]-(4-isopropyl-piperazin-1-yl)-methanone] | 2 nM |  |  |  |  |  |  |  |  |  | 
CC(C)N1CCN(C(=O)c2ccc(CN3CCOC(CO)C3)cc2)CC1 (centres unmarked) [Comparative Example 6B, [4-(2-Hydroxymethyl-morpholin-4-ylmethyl)-phenyl]-(4-isopropyl-piperazin-1-yl)-methanone citratae salt] | 5 nM | 34.9 mL/min/kg | 1410 nM | 2.36 h | 1.34 µM·h | 2960 nM | 0.5 h | 4.35 h | 20 µM·h | 7.04 L/kg | 
O=C(O)CC(O)(CC(=O)O)C(=O)O.O=C(c1ccc(CN2CCSCC2)cc1)N1CCN(C2CC2)CC1 [Example 3B, (4-Cyclopropyl-piperazin-1-yl)-(4-thiomorpholin-4-ylmethyl-phenyl) -methanone citrate salt] |  | 282 mL/min/kg | 860 nM | 0.27 h | 0.18 µM·h | 190 nM | 0.25 h | 0.41 h | 0.18 µM·h | 6.48 L/kg | half-life (T1/2) relative to the comparative examples [2]: shorter T1/2; volume of distribution (Vd) relative to the comparative examples [2]: lower Vd
O=C(c1ccc(CN2CCC(F)CC2)cc1)N1CCN(C2CC2)CC1 [Example 2, (4-Cyclopropyl-piperazin-1-yl)-[4-(4-fluoro-piperidin-1-ylmethyl)-phenyl]-methanone] | 2 nM |  |  |  |  |  |  |  |  |  | 
O=C(O)CC(O)(CC(=O)O)C(=O)O.O=C(c1ccc(CN2CCOCC2)cc1)N1CCN(C2CC2)CC1 [Example 1B, (4-Cyclopropyl-piperazin-1-yl)-(4-morpholin-4-ylmethyl-phenyl) -methanone citrate salt] |  | 21.6 mL/min/kg | 935 ng/mL | 0.92 h |  | 2790 ng/mL | 0.5 h | 3.11 h |  | 1.72 L/kg | Ki (Human H3 Receptor [1]; Ki (nM)): 6.5 nM; half-life (T1/2) relative to the comparative examples [2]: shorter half-life; volume of distribution (Vd) relative to the comparative examples [2]: lower volume of distribution; AUC(0-inf) [2, 9]: 777 ng·h/mL; AUC(0-inf) [2, 10]: 8720 ng·h/mL; CI [2, 11]: 20.2 mL/min/kg; Vd [2, 11]: 5.45 L/kg
O=C(O)CC(O)(CC(=O)O)C(=O)O.O=C(c1ccc(CN2CCSCC2)cc1)N1CCN(C2CCC2)CC1 [Comparative Example 5B, (4-Cyclobutyl-piperazin-1-yl)-(4-thiomorpholin-4-ylmethyl-phenyl)-methanone citrate salt] |  | 154 mL/min/kg | 2680 nM | 1.33 h | 0.42 µM·h | 70 nM | 0.38 h | 0.95 h | 0.12 µM·h | 17.8 L/kg | 
CC(C)N1CCN(C(=O)c2ccc(CN3CCOCC3)cc2)CC1 [Comparative Example 1, (4-Isopropyl-piperazin-1-yl)-(4-morpholin-4-ylmethyl-phenyl) -methanone] |  |  |  |  |  |  |  |  |  |  | Kb (Human H3 Receptor [3]): 1 nM
O=C(c1ccc(CN2CCOCC2)cc1)N1CCN(C2CCC2)CC1 [Comparative Example 2A, (4-Cyclobutyl-piperazin-1-yl)-(4-morpholin-4-ylmethyl-phenyl)-methanone dihydrochloride] | 1.7 nM |  |  |  |  |  |  |  |  |  | 
O=C(O)CC(O)(CC(=O)O)C(=O)O.O=C(c1ccc(CN2CCC(F)CC2)cc1)N1CCN(C2CCC2)CC1 [Comparative Example 4B, (4-Cyclobutyl-piperazin-1-yl)-[4-(4-fluoro-piperidin-1-ylmethyl)-phenyl]-methanone citrate salt] |  | 113 mL/min/kg | 460 nM | 2.08 h | 0.41 µM·h | 480 nM | 0.67 h | 3.44 h | 1.28 µM·h |  | Vd ([2]; i.v. 1 mg/kg, citric acid salt): 20.3 L/kg; CI [2, 11]: 1135 mL/min/kg; Vd [2, 11]: 397 L/kg
O=C(c1ccc(CN2CCSCC2)cc1)N1CCN(C2CC2)CC1 [Example 3, (4-Cyclopropyl-piperazin-1-yl)-(4-thiomorpholin-4-ylmethyl-phenyl) -methanone] | 2.5 nM |  |  |  |  |  |  |  |  |  | 
O=C(c1ccc(CN2CCOC(CO)C2)cc1)N1CCN(C2CC2)CC1 (centres unmarked) [Example 4, (4-Cyclopropyl-piperazin-1-yl)-[4-(2-hydroxymethyl-morpholin-4-ylmethyl)-phenyl]-methanone] | 6 nM |  |  |  |  |  |  |  |  |  | 
O=C(O)CC(O)(CC(=O)O)C(=O)O.O=C(c1ccc(CN2CCOCC2)cc1)N1CCN(C2CCC2)CC1 [Comparative Example 2B, (4-Cyclobutyl-piperazin-1-yl)-(4-morpholin-4-ylmethyl-phenyl)-methanone citrate salt] | 2 nM | 34.8 mL/min/kg | 285 ng/mL | 1.86 h |  | 683 ng/mL | 1.33 h | 2.89 h |  | 6.41 L/kg | AUC(0-inf) [2, 9]: 464 ng·h/mL; AUC(0-inf) [2, 10]: 4100 ng·h/mL; CI [2, 11]: 43.2 mL/min/kg; Vd [2, 11]: 10.33 L/kg
CC(C)N1CCN(C(=O)c2ccc(CN3CCOCC3)cc2)CC1.O=C(O)CC(O)(CC(=O)O)C(=O)O [Comparative Example 1B, (4-Isopropyl-piperazin-1-yl)-(4-morpholin-4-ylmethyl-phenyl) -methanone citrate salt] |  | 12.8 mL/min/kg | 4110 ng/mL |  |  | 1050 ng/mL | 1.5 h | 4.71 h |  | 3.55 L/kg | T1/2 ([2]; i.v. 1 mg/kg, citric acid salt, plasma): 3.2 h; AUC(0-inf) [2, 9]: 1560 ng·h/mL; AUC(0-inf) [2, 10]: 9740 ng·h/mL; CI [2, 11]: 17.1 mL/min/kg; Vd [2, 11]: 6.98 L/kg
